# Patent US7384758B2, “Bioluminescent protease assay with modified aminoluciferin or derivatives thereof” (Promeaga Corporation, priority 2002, dated 2008)
# Assays:
# [1] = tested on: thermostable firefly luciferase; assay: luminescent reaction with luciferin or aminoluciferin as luciferase substrate (FIG. 1); format: biochemical
# Source text: FIG. 1 depicts relative light units (RLU) for luciferin or aminoluciferin as a substrate for a thermostable firefly luciferase in a luminescent reaction.
# caspase 3 = target: T1, caspase 3 (Homo sapiens, UniProt P42574); assay: caspase titration in CHAPS or Thesit buffer formulations (Example 5); format: biochemical; conditions: buffer containing either CHAPS or Thesit, FIG. 12
# T1 construct: approximately 10 mU/ng protein with >75% in active conformation; purchased Upstate Biotech 14-264
# T1 sequence (P42574 29-175 limits assumed): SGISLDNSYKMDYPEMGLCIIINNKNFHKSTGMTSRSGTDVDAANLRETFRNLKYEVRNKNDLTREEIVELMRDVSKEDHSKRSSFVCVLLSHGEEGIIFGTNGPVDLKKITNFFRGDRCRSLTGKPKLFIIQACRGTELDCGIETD
# T1 sequence (P42574 176-277 limits assumed): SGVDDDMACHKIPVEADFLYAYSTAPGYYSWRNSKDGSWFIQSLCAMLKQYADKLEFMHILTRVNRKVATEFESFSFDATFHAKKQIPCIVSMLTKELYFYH
# Method: To evaluate different assay component formulations for caspase-3 activity and to compare sensitivities of DEVD-aminoluciferin to DEVD-Rho-110 in those formulations, two stock solutions were prepared. As above, the DEVD-aminoluciferin/luciferase mixture is prepared and allowed to incubate overnight. One stock solution included a 1% solution of CHAPS buffer (Sigma, Catalog No. C-5070) and the other a 1% solution of Thesit (Pragmatics, Inc., Catalog No. S-22#9). The buffer formulations were as follows: 100 μl of HEPES (1 M stock, 50 mM final concentration), 10 μl of CaCl2 (1 M stock, 5 mM final concentration), 30 μl of MgSO4 (1 M stock, 15 mM final concentration), 8 μl of ATP (0.1 M stock, 400 μM final concentration), 8 μl of DEVD-aminoluciferin (10 mM stock, 40 μM final concentration), 38.4 μl of luciferase (5.2 mg/ml stock, 100 μg/ml final concentration) and 20 μl of prionex (10% stock, 0.1% final concentration) were combined in each of 2 tubes. Finally, 200 μl of either CHAPS or Thesit (1% stock, 0.1% final concentration) was added to one of the tubes. This was incubated overnight. […]
# To one plate, 50 μl of DEVD-aminoluciferin/luciferase was added to each of the 6 wells containing each dilution (both CHAPS and Thesit treated). […] The plates were read at various times on a luminometer (Dynex) or a fluorimeter (Fluoroskan).
compound,measurement,setting,value
Nc1ccc2nc(C3=N[C@@H](C(=O)O)CS3)sc2c1 [aminoluciferin],Km,"[1]; substrate for thermostable firefly luciferase, FIG. 1",2 µM
same,light output as luciferin,"[1]; under saturating conditions, relative to luciferin",about 60%
same,limit of detection (caspase),caspase 3,~0.2 μU
